Experimental data reported in article PMC5972032, “Evolution of substrate specificity in the Nucleobase-Ascorbate Transporter (NAT) protein family” (Microbial Cell, 2018).
pKi: −log10 of the molar value.

Target: T1, UapA (Aspergillus nidulans, UniProt Q07307)
T1 construct: full-length, C-terminal GFP tag (plasmid pAN510-GFP), expressed in A. nidulans uapAΔ uapCΔ azgAΔ pabaA1 argB2; homodimer
Experiment: inhibition of [3H]-xanthine uptake in germinating conidiospores
Assay type: cell-based
Description: inhibition of [3H]-xanthine uptake in germinating conidiospores on UapA | wild-type UapA can indeed bind L-ascorbate with very low affinity, reflected in a Ki

T1 sequence (Q07307 whole entry): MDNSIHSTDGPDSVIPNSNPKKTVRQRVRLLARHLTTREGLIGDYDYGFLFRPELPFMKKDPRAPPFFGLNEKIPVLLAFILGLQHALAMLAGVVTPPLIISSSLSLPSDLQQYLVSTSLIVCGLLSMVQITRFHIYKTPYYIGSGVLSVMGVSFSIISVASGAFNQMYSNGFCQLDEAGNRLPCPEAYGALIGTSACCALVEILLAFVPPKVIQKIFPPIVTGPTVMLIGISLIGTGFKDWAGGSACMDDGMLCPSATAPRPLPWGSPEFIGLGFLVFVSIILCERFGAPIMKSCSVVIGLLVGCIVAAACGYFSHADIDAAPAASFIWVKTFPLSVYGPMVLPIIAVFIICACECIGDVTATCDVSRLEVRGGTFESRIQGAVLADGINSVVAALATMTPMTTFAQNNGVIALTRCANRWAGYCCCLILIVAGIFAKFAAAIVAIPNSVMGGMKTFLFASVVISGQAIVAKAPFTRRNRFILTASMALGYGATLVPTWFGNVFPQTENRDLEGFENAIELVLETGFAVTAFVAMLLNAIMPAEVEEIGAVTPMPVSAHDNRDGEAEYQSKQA

pKi: ~1.77
Compound: O=C1O[C@H]([C@@H](O)CO)C(O)=C1O [L-ascorbate]
